Data set [1] in a line: Selectivity ratio of IC50 for african green monkey Vero cells to IC50 for human Jurkat cells. In kind it is ADME, cell-based. Conditions: Vero cells versus Jurkat cells, read-out: Ratio IC50.
For data set [2], the system named is Aspergillus fumigatus. The experiment in a line: Antifungal activity against Aspergillus fumigatus up to 100 ug/ml after 48 hrs by broth dilution method. The data set is classed as functional, organism-based.
Data set [3] concerns Aspergillus niger. The experiment in a line: Antifungal activity against Aspergillus niger up to 100 ug/ml after 48 hrs by broth dilution method. In kind it is functional, organism-based.
Another data set deals with HeLa. The experiment in a line: Cytotoxicity against human HeLa cells after 48 hrs by MTT assay. The data set is classed as functional, cell-based.
A further data set relates to Human alphaherpesvirus 1. In words: Antiviral activity against Herpes simplex virus type 1 infected in HeLa cells assessed as reduction in viral replication after 48 hrs. The data set is classed as functional, organism-based.
In the next data set the test system is Aspergillus flavus. In words: Antifungal activity against Aspergillus flavus up to 100 ug/ml after 48 hrs by broth dilution method. In kind it is functional, organism-based.
Data set [4] concerns Aspergillus niger. The experiment in a line: Antifungal activity against Aspergillus niger after 48 hrs by broth dilution method. In kind it is functional. On the technique in general: Dilution methods test growth across graded concentrations, often in twofold steps.
The subject of a further data set is Vero. The experiment in a line: Cytotoxicity against african green monkey Vero cells after 48 hrs by MTT assay. In kind it is cell-based. Conditions: chlorocebus sabaeus. Background: Tetrazolium dyes change colour on reduction, which living cells bring about.
Data set [5] has as its system Aspergillus terreus. In words: Antifungal activity against Aspergillus terreus after 48 hrs by broth dilution method. The data set is classed as functional.
In another data set the test system is Jurkat. In words: Cytotoxicity against human Jurkat cells after 48 hrs by MTT assay. In kind it is functional, cell-based.
Data set [6] concerns Aspergillus terreus. In words: Antifungal activity against Aspergillus terreus up to 100 ug/ml after 48 hrs by broth dilution method. The data set is classed as functional, organism-based.
Data set [7] has as its system Aspergillus fumigatus. In words: Antifungal activity against Aspergillus fumigatus after 48 hrs by broth dilution method. The data set is classed as functional.
The nature of data set [8]: Selectivity ratio of IC50 for african green monkey Vero cells to IC50 for human HeLa cells. The data set is classed as ADME, cell-based. Conditions: Vero cells versus HeLa cells, read-out: Ratio IC50.

This is an account of results in ChEMBL document CHEMBL3132786, “Cytotoxic, immunomodulatory, antimycotic, and antiviral activities of semisynthetic 14-hydroxyabietane derivatives and triptoquinone C-4 epimers” (Medchemcomm, 2013).

Converted amounts (≈) assume the structure as drawn. The source made the active and inactive calls. The rule behind the calls is not given here.

As to `CC(C)c1ccc2c(c1O)CC[C@H]1[C@](C)(CO)CCC[C@]21C`, the selectivity ratio in data set [1] was determined as 2.3; in data set [8], 0.71. Besides, the outcome in the data set on Aspergillus fumigatus [2], with Aspergillus niger [3], in the data set on Human alphaherpesvirus 1, in the data set on Aspergillus flavus and in the data set on Aspergillus terreus [6] was inactive. For the same compound, the inhibition entry with HeLa and in the data set on Jurkat was “Dose-dependent effect” in each case. Also, the minimum inhibitory concentration (MIC) against Aspergillus niger [4] worked out at 50 µg/mL (≈ 165 µM); with Aspergillus terreus [5], 25 µg/mL (≈ 82.7 µM); in the data set with Aspergillus fumigatus [7] it was 25 µg/mL (≈ 82.7 µM). For the same compound, the “inhibition (INH)” value in the data set on Vero is recorded as “Dose-dependent effect”.

In general, MIC refers to the lowest concentration found to suppress growth.
